# Molecular target: T1, AHR (Homo sapiens, UniProt P35869)
# T1 sequence (P35869 11-848): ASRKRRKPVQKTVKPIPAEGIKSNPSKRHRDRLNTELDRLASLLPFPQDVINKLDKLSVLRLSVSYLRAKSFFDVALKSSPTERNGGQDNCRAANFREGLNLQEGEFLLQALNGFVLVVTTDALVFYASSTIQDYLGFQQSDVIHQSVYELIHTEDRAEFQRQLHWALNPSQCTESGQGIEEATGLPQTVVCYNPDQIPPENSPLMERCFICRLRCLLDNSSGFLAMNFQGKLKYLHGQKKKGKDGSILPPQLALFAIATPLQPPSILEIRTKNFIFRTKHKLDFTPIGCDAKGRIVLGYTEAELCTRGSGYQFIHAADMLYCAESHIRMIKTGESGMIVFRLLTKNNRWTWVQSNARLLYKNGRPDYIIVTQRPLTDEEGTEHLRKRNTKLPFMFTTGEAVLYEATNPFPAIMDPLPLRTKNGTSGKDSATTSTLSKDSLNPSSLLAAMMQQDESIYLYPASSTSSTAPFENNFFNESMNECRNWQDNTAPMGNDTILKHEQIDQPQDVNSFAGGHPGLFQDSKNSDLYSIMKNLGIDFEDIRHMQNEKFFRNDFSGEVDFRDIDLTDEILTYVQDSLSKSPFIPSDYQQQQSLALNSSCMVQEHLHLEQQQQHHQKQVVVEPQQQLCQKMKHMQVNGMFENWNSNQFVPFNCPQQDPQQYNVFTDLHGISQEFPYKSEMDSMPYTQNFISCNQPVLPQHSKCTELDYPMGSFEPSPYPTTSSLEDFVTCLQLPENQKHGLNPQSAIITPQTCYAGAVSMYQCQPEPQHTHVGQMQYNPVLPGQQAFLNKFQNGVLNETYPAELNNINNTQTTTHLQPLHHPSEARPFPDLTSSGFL
# Experiment: In vitro assay 1: AHR-luc transactivation assay, antagonism in human cell line (U87 glioblastoma cells, kynurenic acid prestimulated)
# Assay type: cell-based
# Parameters: U87 glioblastoma cells (ATCC) endogenously expressing AHR; host or cells: U87 glioblastoma cells, stably transfected with DRE-firefly luciferase and renilla reporter constructs only
# Details: firefly luciferase DRE reporter, 150 μM kynurenic acid, 20 hours, read-out: Assay 1: AHR-luc Hum Antagonism IC50
# Protocol: Transactivation Assay in Human Cell Line (In Vitro Assays 1 and 2)
# Transactivation assays were carried out in U87 glioblastoma cells (ATCC) endogenously expressing AHR. In addition the cells were stably transfected with an AHR inducible firefly luciferase reporter gene construct that carried AHR-binding sites (DRE) in its promoter and a renilla reporter gene construct with constitutively active promoter. Kynurenic acid is an endogenous AHR activating ligand and was used to prestimulate test cells prior to testing the antagonistic properties of compounds.
# In Vitro Assay 1: Antagonism in Human Cell Line
# Cells in medium (tryptophan free RPMI, 1% FCS, 2 mM Glutamine) supplemented with 150 μM kynurenic acid were grown for 20 hours in absence (negative control) or presence of increasing concentrations of test compounds (typical dilutions: […], 0.25 nmol/L, 0.89 nmol/L; 3.1 nmol/L, 11 nmol/L, 38 nmol/L, 130 nmol/L, 470 nmol/L, 1.6 μmol/L, 5.7 μmol/L and 20 μmol/L in duplicates). As positive inhibition control cells supplemented with 150 μM kynurenic acid were incubated in presence of 5 μM Staurosporin. Normalization was done by positive and negative controls.
# Firefly luciferase and Renilla activity was determined by the DualGlo Luciferase Assay System (Promega, #2920). Renilla activity was used to assess toxic effects of compounds.
row,IC50,Compound
1,80.3 nM,"C[C@@H](CS(C)(=N)=O)NC(=O)c1cc(-c2ccc(C(F)(F)F)cc2)nn(-c2cnn(C)c2)c1=O (single isomer, unassigned) [Example 40]"
2,39.2 nM,"C[C@@H](CS(C)(=O)=NC(=O)C(F)(F)F)NC(=O)c1cc(-c2ccc(C(F)(F)F)cc2)nn(-c2cnn(C)c2)c1=O (stereo partly drawn) [Example 41, 2-(1-Methyl-1H-pyrazol-4-yl)-N-{(2S)-1-[S-methyl-N-(trifluoroacetyl)sulfonimidoyl]propan-2-yl}-3-oxo-6-[4-(trifluoromethyl)phenyl]-2,3-dihydropyridazine-4-carboxamide]"
3,41.6 nM,"Cn1cc(-n2nc(-c3ccc(C(F)(F)F)cc3)cc(C(=O)N[C@@H]3C[S+]([O-])C[C@@H]3O)c2=O)cn1 (relative stereo) [Example 32, N-[(cis)-4-hydroxy-1-oxidotetrahydro-thiophen-3-yl]-2-(1-methyl-1H-pyrazol-4-yl)-3-oxo-6-[4-(trifluoromethyl)phenyl]-2,3-dihydropyridazine-4-carboxamide]"
4,34.9 nM,"N=S1(=O)C[C@H](O)[C@H](NC(=O)c2cc(-c3ccc(Cl)cc3)nn(-c3cccc(F)c3)c2=O)C1 (stereo partly drawn) [Example 42, 6-(4-chlorophenyl)-2-(3-fluorophenyl)-N-[(cis)-4-hydroxy-1-imino-1-oxidotetrahydro-1H-1lambda4-thiophen-3-yl]-3-oxo-2,3-dihydropyridazine-4-carboxamide]"
5,43.8 nM,"N=S1(=O)C[C@H](O)[C@H](NC(=O)c2cc(-c3ccc(Cl)cc3)nn(-c3cccc(F)c3)c2=O)C1 (single isomer, unassigned) [Example 43, 6-(4-chlorophenyl)-2-(3-fluorophenyl)-N-[(cis)-4-hydroxy-1-imino-1-oxidotetrahydro-1H-1lambda4-thiophen-3-yl]-3-oxo-2,3-dihydropyridazine-4-carboxamide]"
6,700 nM,"CS(=N)(=O)CCNC(=O)c1cc(-c2ccc(Cl)cc2)nn(-c2cccc(F)c2)c1=O (stereo not shown) [Example 52, 6-(4-Chlorophenyl)-2-(3-fluorophenyl)-N-[2-(S-methylsulfonimidoyl)ethyl]-3-oxo-2,3-dihydropyridazine-4-carboxamide]"
7,581 nM,"CS(=N)(=O)CCNC(=O)c1cc(-c2ccc(Cl)cc2)nn(-c2cccc(F)c2)c1=O (single isomer, unassigned) [Example 54, 6-(4-Chlorophenyl)-2-(3-fluorophenyl)-N-[2-(S-methylsulfonimidoyl)ethyl]-3-oxo-2,3-dihydropyridazine-4-carboxamide]"
8,99.3 nM,"N=S1(=O)C[C@H](O)[C@H](NC(=O)c2cc(-c3ccc(Cl)cc3)nn(-c3cccc(F)c3)c2=O)C1 (stereo partly drawn) [Example 44, 6-(4-chlorophenyl)-2-(3-fluorophenyl)-N-[(cis)-4-hydroxy-1-imino-1-oxidotetrahydro-1H-1lambda4-thiophen-3-yl]-3-oxo-2,3-dihydropyridazine-4-carboxamide]"
9,78.8 nM,"O=C(N[C@@H]1C[S+]([O-])C[C@@H]1O)c1cc(-c2ccc(C(F)(F)F)cc2)nn(-c2cccnc2)c1=O (single isomer, unassigned) [Example 34, N-[(cis)-4-hydroxy-1-oxidotetrahydro-thiophen-3-yl]-3-oxo-2-(pyridin-3-yl)-6-[4-(trifluoromethyl)phenyl]-2,3-dihydropyridazine-4-carboxamide]"

# Continued, compound first:
row,Compound,IC50
1,"C[C@@H](CS(C)(=O)=O)NC(=O)c1cc(-c2ccc(C(F)(F)F)cc2)nn(-c2cnn(C)c2)c1=O [Example 22, 2-(1-Methyl-1H-pyrazol-4-yl)-N-[(2S)-1-(methylsulfonyl)propan-2-yl]-3-oxo-6-[4-(trifluoromethyl)phenyl]-2,3-dihydropyridazine-4-carboxamide]",21.9 nM
2,"C[C@@H](C[S+](C)[O-])NC(=O)c1cc(-c2ccc(Cl)cc2)nn(-c2cccc(F)c2)c1=O (mixture of isomers) [Example 3, 6-(4-Chlorophenyl)-2-(3-fluorophenyl)-N-[(2S)-1-(methylsulfinyl)propan-2-yl]-3-oxo-2,3-dihydropyridazine-4-carboxamide]",44.2 nM
3,"C[C@@H](C[S+](C)[O-])NC(=O)c1cc(-c2ccc(Cl)cc2)nn(-c2cccc(F)c2)c1=O (single isomer, unassigned) [Example 5]",180 nM
4,"O=C(N[C@@H]1CS(=O)(=O)C[C@@H]1O)c1cc(-c2ccc(C(F)(F)F)cc2)nn(-c2cnsc2)c1=O (single isomer, unassigned) [Example 12, (+)-N-[(cis)-4-hydroxy-1,1-dioxidotetra-hydrothiophen-3-yl]-3-oxo-2-(1,2-thiazol-4-yl)-6-[4-(trifluoromethyl)phenyl]-2,3-dihydropyridazine-4-carboxamide]",1.11 nM
5,"C[C@@H](CS(C)(=N)=O)NC(=O)c1cc(-c2ccc(Cl)cc2)nn(-c2cccc(F)c2)c1=O (single isomer, unassigned) [Example 7]",241 nM
6,"C[C@@H](C[S+](C)[O-])NC(=O)c1cc(-c2ccc(C(F)(F)F)cc2)nn(-c2cnn(C)c2)c1=O (mixture of isomers) [Example 23, 2-(1-Methyl-1H-pyrazol-4-yl)-N-[(2S)-1-(methylsulfinyl)propan-2-yl]-3-oxo-6-[4-(trifluoromethyl)phenyl]-2,3-dihydropyridazine-4-carboxamide]",5.37 nM
7,"O=C(N[C@@H]1CS(=O)(=O)C[C@@H]1O)c1cc(-c2ccc(C(F)(F)F)cc2)nn(-c2cnsc2)c1=O (single isomer, unassigned) [Example 11, (−)-N-[(cis)-4-hydroxy-1,1-dioxidotetrahydro-thiophen-3-yl]-3-oxo-2-(1,2-thiazol-4-yl)-6-[4-(trifluoromethyl)phenyl]-2,3-dihydropyridazine-4-carboxamide]",3.46 nM
8,"O=C(N[C@@H]1CS(=O)(=O)C[C@@H]1O)c1cc(-c2ccc(C(F)(F)F)cc2)nn(-c2cccnc2)c1=O (single isomer, unassigned) [Example 18]",38.2 nM
9,"C[C@@H](CS(C)(=N)=O)NC(=O)c1cc(-c2ccc(Cl)cc2)nn(-c2cccc(F)c2)c1=O (mixture of isomers) [Example 6, 6-(4-Chlorophenyl)-2-(3-fluorophenyl)-N-[(2S)-1-(S-methylsulfonimidoyl)propan-2-yl]-3-oxo-2,3-di hydropyridazine-4-carboxamide]",232 nM
10,"O=C(N[C@@H]1CS(=O)(=O)C[C@@H]1O)c1cc(-c2ccc(C(F)(F)F)nc2)nn(-c2cccc(F)c2)c1=O (single isomer, unassigned) [Example 20, (+)-2-(3-fluorophenyl)-N-[(cis)-4-hydroxy-1,1-dioxidotetrahydro-thiophen-3-yl]-3-oxo-6-[6-(trifluoromethyl)pyridin-3-yl]-2,3-dihydropyridazine-4-carboxamide]",54.3 nM
11,"O=C(N[C@@H]1C[S+]([O-])C[C@@H]1O)c1cc(-c2ccc(Cl)cc2)nn(-c2cccc(F)c2)c1=O (single isomer, unassigned) [Example 26, 6-(4-chlorophenyl)-2-(3-fluorophenyl)-N-[(cis)-4-hydroxy-1-oxidotetrahydro-thiophen-3-yl]-3-oxo-2,3-dihydropyridazine-4-carboxamide]",33.3 nM
12,"O=C(N[C@@H]1CS(=O)(=O)C[C@@H]1O)c1cc(-c2ccc(C(F)(F)F)nc2)nn(-c2cccc(F)c2)c1=O (single isomer, unassigned) [Example 21, (−)-2-(3-fluorophenyl)-N-[(cis)-4-hydroxy-1,1-dioxidotetrahydro-thiophen-3-yl]-3-oxo-6-[6-(trifluoromethyl)pyridin-3-yl]-2,3-dihydropyridazine-4-carboxamide]",205 nM
13,"O=C(N[C@@H]1C[S+]([O-])C[C@@H]1O)c1cc(-c2ccc(Cl)cc2)nn(-c2cccc(F)c2)c1=O (single isomer, unassigned) [Example 29, 6-(4-chlorophenyl)-2-(3-fluorophenyl)-N-[(cis)-4-hydroxy-1-oxidotetrahydro-thiophen-3-yl]-3-oxo-2,3-dihydropyridazine-4-carboxamide]",301 nM

# From patent US11459312B2, “Sulphur substituted 3-oxo-2,3-dihydropyridazine-4-carboxamides” (Bayer Aktiengesellschaft, priority 2017, dated 2022)
